Read-outs that look alike come from different tables or passages of the source.
How the values were obtained:
ZF4 and ZFL cell lines = assay: Cytotoxicity assays, all endpoints, both cell lines (mean/range); assay type: cell-based, zebrafish (Danio rerio); conditions: 48 h, mean of all cytotoxicity endpoints (without LDH) in ZF4 and ZFL
[1] = system: ZFL (hepatocytes) cell line; assay: cells; assay type: cell-based, zebrafish (Danio rerio); conditions: Danio rerio, Hepatocyte
[2] = system: zebrafish cell lines vs zebrafish embryo; assay: Potency ratios IC50;x/EC50;x (cytotoxicity assays vs mFET); set-up: species or system zebrafish (Danio rerio)
[3] = ref Comptox, PubChem or DrugBank; cited from earlier work
[4] = system: diverse mammalian cell assay results; set-up: method as in https://comptox.epa.gov/dashboard/; conditions: COMPTOX; ref https://comptox.epa.gov/dashboard/; read-out: median AC50; cited from earlier work
[5] = system: ZF4 (fibroblasts) cell line; assay: alamarBlue (AB) endpoint of AB/CFDA/NR multiplex, cellular respiration; assay type: cell-based, zebrafish (Danio rerio); conditions: Danio rerio, Fibroblast
[6] = system: ZF4 (fibroblasts) cell line; assay: Neutral red, absorbance (NRa), AB/CFDA/NR multiplex, lysosome stability; assay type: cell-based, zebrafish (Danio rerio); conditions: Danio rerio, Fibroblast
[7] = system: ZF4 (fibroblasts) cell line; assay: Neutral red, fluorescence (NRf), AB/CFDA/NR multiplex, lysosome stability; assay type: cell-based, zebrafish (Danio rerio); conditions: Danio rerio, Fibroblast
[8] = system: ZFL (hepatocytes) cell line; assay: cells; assay type: cell-based, zebrafish (Danio rerio); conditions: Danio rerio, Hepatocyte; remark: listed apart in the source
[9] = system: ZFL (hepatocytes) cell line; assay: cells; assay type: cell-based, zebrafish (Danio rerio); conditions: Danio rerio, Hepatocyte; remark: listed apart in the source
[10] = system: ZF4 (fibroblasts) cell line; assay: ATP assay (ATP/LDH multiplex), ATP metabolism; assay type: cell-based, zebrafish (Danio rerio); conditions: Danio rerio, Fibroblast
[11] = system: ZFL (hepatocytes) cell line; assay: cells; assay type: cell-based, zebrafish (Danio rerio); conditions: Danio rerio, Hepatocyte; remark: listed apart in the source
[12] = system: ZFL (hepatocytes) cell line; assay: cells; assay type: cell-based, zebrafish (Danio rerio); conditions: Danio rerio, Hepatocyte; remark: listed apart in the source
[13] = system: ZF4 (fibroblasts) cell line; assay: BCA assay (MTS/BCA multiplex), protein amount; assay type: cell-based, zebrafish (Danio rerio); conditions: Danio rerio, Fibroblast
[14] = system: ZFL (hepatocytes) cell line; assay: cells; assay type: cell-based, zebrafish (Danio rerio); conditions: Danio rerio, Hepatocyte; remark: listed apart in the source
zebrafish embryos [15] = assay: animal or person; assay type: in vivo, zebrafish (Danio rerio); conditions: for EC50: Danio rerio
[16] = system: ZF4 (fibroblasts) cell line; assay: MTS assay (MTS/BCA multiplex), NAD(P)H metabolism; assay type: cell-based, zebrafish (Danio rerio); conditions: Danio rerio, Fibroblast
[17] = system: ZFL (hepatocytes) cell line; assay: cells; assay type: cell-based, zebrafish (Danio rerio); conditions: Danio rerio, Hepatocyte; remark: listed apart in the source
zebrafish embryos [18] = system: zebrafish embryos; set-up: method as in earlier work; conditions: nominal, cited from earlier work
[19] = system: ZF4 (fibroblasts) cell line; assay: CFDA endpoint of AB/CFDA/NR multiplex, membrane stability; assay type: cell-based, zebrafish (Danio rerio); conditions: Danio rerio, Fibroblast

SMILES: COC(=O)Nc1nc2ccc([S+]([O-])c3ccccc3)cc2[nH]1 (stereo not drawn) [Oxfendazole, oxfendazole]
- IC50 (ZF4 and ZFL cell lines; Danio rerio, log10, read-out: Mean log IC50nom (converted)): 23.4 µM
- Mean log IC50nom (ZF4 and ZFL cell lines; log10, listed as Ox): -4.631 M
- IC50 ([1]; MTS - ZFL, log10 of IC50, read-out: LogIC50 (converted)): 9.73 µM
- IC50 ([1]; MTS - ZFL, read-out: IC50): 9.73 µM
- IC50 ([1]; ZFL, 48 h exposure, nominal, log10, read-out: logIC50 (log10 IC50;nom) MTS (converted)): 9.77 µM
- IC50 ([1]; ZFL, 48 h exposure, nominal, read-out: IC50;nom MTS): 9.73 µM
- potency ratio IC50;nom/EC50;nom (median) ([2]; median over cytotoxicity endpoints, nominal, 48 h cells / 48 hpf mFET): 1.51
- difference in sensitivity between embryo (EC50;nom) and cells (IC50;nom) ([2]; nominal concentrations, higher potency in the mFET): equal nominal median concentrations between test systems
- BCF [3]: 161
- Physiological charge [3]: 0
- Water Solubility [3]: insoluble
- logKoa [3]: 9.57
- logKow [3]: 1.45
- pKa (Strongest Acidic) [3]: 9.26
- pKa (Strongest Basic) [3]: 3.57
- w_solubility (water solubility) [3]: 864 µM
- AC50 [4]: 0.34 µM
- IC50 ([5]; AB - ZF4, log10 of IC50, read-out: LogIC50 (converted)): 124 µM
- IC50 ([5]; AB - ZF4, read-out: IC50): 124 µM
- IC50 ([5]; ZF4, 48 h exposure, nominal, log10, read-out: logIC50 (log10 IC50;nom) AB (converted)): 123 µM
- IC50 ([5]; ZF4, 48 h exposure, nominal, read-out: IC50;nom AB): 124 µM
- IC50 ([6]; NR-abs - ZF4, log10 of IC50, read-out: LogIC50 (converted)): 58.6 µM
- IC50 ([6]; NR-abs - ZF4, read-out: IC50): 58.6 µM
- IC50 ([6]; ZF4, 48 h exposure, nominal, log10, read-out: logIC50 (log10 IC50;nom) NRa (converted)): 58.9 µM
- IC50 ([6]; ZF4, 48 h exposure, nominal, read-out: IC50;nom NRa): 58.6 µM
- IC50 ([6]; ZF4 cell line, NRa endpoint, nominal, read-out: IC50;nom): 18.5 µg/mL
- IC50 ([7]; NR-fluo - ZF4, log10 of IC50, read-out: LogIC50 (converted)): 54.3 µM
- IC50 ([7]; NR-fluo - ZF4, read-out: IC50): 54.3 µM
- IC50 ([7]; ZF4, 48 h exposure, nominal, log10, read-out: logIC50 (log10 IC50;nom) NRf (converted)): 53.7 µM
- IC50 ([7]; ZF4, 48 h exposure, nominal, read-out: IC50;nom NRf): 54.3 µM
- IC50 ([8]; BCA - ZFL, log10 of IC50, read-out: LogIC50 (converted)): 0.058 µM
- IC50 ([8]; BCA - ZFL, read-out: IC50): 0.058 µM
- IC50 ([8]; ZFL, 48 h exposure, nominal, log10, read-out: logIC50 (log10 IC50;nom) BCA (converted)): 0.0575 µM
- IC50 ([8]; ZFL, 48 h exposure, nominal, read-out: IC50;nom BCA): 0.058 µM
- IC50 ([9]; CFDA - ZFL, log10 of IC50, read-out: LogIC50 (converted)): 320 µM
- IC50 ([9]; CFDA - ZFL, read-out: IC50): 320 µM
- IC50 ([9]; ZFL, 48 h exposure, nominal, log10, read-out: logIC50 (log10 IC50;nom) CFDA (converted)): 324 µM
- IC50 ([9]; ZFL, 48 h exposure, nominal, read-out: IC50;nom CFDA): 320 µM
- IC50 ([10]; ATP - ZF4, log10 of IC50, read-out: LogIC50 (converted)): 144 µM
- IC50 ([10]; ATP - ZF4, read-out: IC50): 144 µM
- IC50 ([10]; ZF4, 48 h exposure, nominal, log10, read-out: logIC50 (log10 IC50;nom) ATP (converted)): 145 µM
- IC50 ([10]; ZF4, 48 h exposure, nominal, read-out: IC50;nom ATP): 144 µM
- IC50 ([11]; NR-fluo - ZFL, log10 of IC50, read-out: LogIC50 (converted)): 7.37 µM
- IC50 ([11]; NR-fluo - ZFL, read-out: IC50): 7.37 µM
- IC50 ([11]; ZFL, 48 h exposure, nominal, log10, read-out: logIC50 (log10 IC50;nom) NRf (converted)): 7.41 µM
- IC50 ([11]; ZFL, 48 h exposure, nominal, read-out: IC50;nom NRf): 7.37 µM
- IC50 ([12]; AB - ZFL, log10 of IC50, read-out: LogIC50 (converted)): 10.4 µM
- IC50 ([12]; AB - ZFL, read-out: IC50): 10.4 µM
- IC50 ([12]; ZFL, 48 h exposure, nominal, log10, read-out: logIC50 (log10 IC50;nom) AB (converted)): 10.5 µM
- IC50 ([12]; ZFL, 48 h exposure, nominal, read-out: IC50;nom AB): 10.4 µM
- IC50 ([13]; BCA - ZF4, log10 of IC50, read-out: LogIC50 (converted)): 6.43 µM
- IC50 ([13]; BCA - ZF4, read-out: IC50): 6.43 µM
- IC50 ([13]; ZF4, 48 h exposure, nominal, log10, read-out: logIC50 (log10 IC50;nom) BCA (converted)): 6.46 µM
- IC50 ([13]; ZF4, 48 h exposure, nominal, read-out: IC50;nom BCA): 6.43 µM
- IC50 ([14]; NR-abs - ZFL, log10 of IC50, read-out: LogIC50 (converted)): 8.93 µM
- IC50 ([14]; NR-abs - ZFL, read-out: IC50): 8.93 µM
- IC50 ([14]; ZFL, 48 h exposure, nominal, log10, read-out: logIC50 (log10 IC50;nom) NRa (converted)): 8.91 µM
- IC50 ([14]; ZFL, 48 h exposure, nominal, read-out: IC50;nom NRa): 8.93 µM
- difference in toxicity (EC50;nom) between 48 hpf and 144 hpf (zebrafish embryos [15]; 48 hpf time point less sensitive than 144 hpf): approximately the same
- log EC50;nom (mFET) (zebrafish embryos [15]; 48 hpf, nominal, log10, listed as Ox): -4.607 M
- EC50 (zebrafish embryos [15]; 48 hpf, nominal, log10, read-out: log EC50;nom (mFET) (converted)): 24.5 µM
- EC50 (zebrafish embryos [15]; 48 hpf, nominal, read-out: EC50;nom (embryo)): 7.79 µg/mL
- EC50 (zebrafish embryos [15]; read-out: EC50 48hpf): 24.7 µM
- EC50 (zebrafish embryos [15]; read-out: EC50;nom (mFET)): 24.7 µM
- IC50 ([16]; MTS - ZF4, log10 of IC50, read-out: LogIC50 (converted)): 20.4 µM
- IC50 ([16]; MTS - ZF4, read-out: IC50): 20.4 µM
- IC50 ([16]; ZF4, 48 h exposure, nominal, log10, read-out: logIC50 (log10 IC50;nom) MTS (converted)): 20.4 µM
- IC50 ([16]; ZF4, 48 h exposure, nominal, read-out: IC50;nom MTS): 20.4 µM
- IC50 ([17]; ATP - ZFL, log10 of IC50, read-out: LogIC50 (converted)): 106 µM
- IC50 ([17]; ATP - ZFL, read-out: IC50): 106 µM
- IC50 ([17]; ZFL, 48 h exposure, nominal, log10, read-out: logIC50 (log10 IC50;nom) ATP (converted)): 105 µM
- IC50 ([17]; ZFL, 48 h exposure, nominal, read-out: IC50;nom ATP): 106 µM
- EC50 (zebrafish embryos [18]; 144 hpf, converted, listed as Ox): 21.6 µM
- logEC50 144 hpf (zebrafish embryos [18]; log10): -4.666 M
- IC50 ([19]; CFDA - ZF4, log10 of IC50, read-out: LogIC50 (converted)): 153 µM
- IC50 ([19]; CFDA - ZF4, read-out: IC50): 153 µM
- IC50 ([19]; ZF4, 48 h exposure, nominal, log10, read-out: logIC50 (log10 IC50;nom) CFDA (converted)): 151 µM
- IC50 ([19]; ZF4, 48 h exposure, nominal, read-out: IC50;nom CFDA): 153 µM

Reference: article PMC7872314, “Modeling Bioavailable Concentrations in Zebrafish Cell Lines and Embryos Increases the Correlation of Toxicity Potencies across Test Systems” (Environmental Science & Technology, 2020)
